In patent US20150086511A1, “SURVIVAL, DIFFERENTIATION AND STRUCTURAL INTEGRATION OF HUMAN NEURAL STEM CELLS GRAFTED INTO THE ADULT RAT SPINAL CORD” (NEURALSTEM, INC., priority 2005, published 2015):

Key:
SOD1-G93A mice = assay: Clinical outcomes (disease onset, life span, motor score) in SOD1-G93A mice grafted with human NSCs; settings: SOD1-G93A mice grafted with live NSCs, by immunosuppressive regimen
Protocol: Thus, five experimental groups were given different immunosuppressive treatments: the first group was treated with FK506 monotherapy (Prograf, Fujisawa Healthcare, Inc., Deerfield, Ill.) (2 μg/g/day, n=23); a second group was treated with a double immunosuppressive regimen combining FK506 and rapamycin (Calbiochem, La Jolla, Calif.) (1 μg/g/day each, n=21); a third group received triple immunosuppression with FK506, rapamycin, and MMF (CellCept, Roche, Nutley, N.J.) (1 μg/g/day each for FK506 and rapamycin, 100 μg/g/day for MMF, n=14); a fourth group was treated with CD4 antibodies (clone GK1.5, 20 μg/g/day, n=12); and a fifth group (n=10) was treated with FK506 plus rapamycin exactly as the second group, except that subjects were grafted with dead cells. Dead-cell grafts utilized cells that were exposed to repeated freezing-thawing and served to control for the potential therapeutic effects of immunosuppressants themselves on motor neuron disease. […]
Clinical outcomes were studied on the same set of data originating from five concurrent treatment groups allowed to survive to terminal illness. […] Variance in disease onset and life span was analyzed with one-way ANOVA, followed by a Fisher LSD post hoc test. Variance in motor score curves was analyzed by repeated-measures ANOVA, followed by Fisher LSD testing. […]

[1] = test system: SOD1-G93A mice grafted with human NSCs; assay: Graft rejection and human NSC graft survival under immunosuppressive regimens in SOD1-G93A mice (ICC for HNu, CD4, CD8, DX5, Iba-1); settings: compared to the double immunosuppressive regimen
Protocol: Thus, five experimental groups were given different immunosuppressive treatments: the first group was treated with FK506 monotherapy (Prograf, Fujisawa Healthcare, Inc., Deerfield, Ill.) (2 μg/g/day, n=23); a second group was treated with a double immunosuppressive regimen combining FK506 and rapamycin (Calbiochem, La Jolla, Calif.) (1 μg/g/day each, n=21); a third group received triple immunosuppression with FK506, rapamycin, and MMF (CellCept, Roche, Nutley, N.J.) (1 μg/g/day each for FK506 and rapamycin, 100 μg/g/day for MMF, n=14); a fourth group was treated with CD4 antibodies (clone GK1.5, 20 μg/g/day, n=12); and a fifth group (n=10) was treated with FK506 plus rapamycin exactly as the second group, except that subjects were grafted with dead cells. Dead-cell grafts utilized cells that were exposed to repeated freezing-thawing and served to control for the potential therapeutic effects of immunosuppressants themselves on motor neuron disease. […] Males and females were randomly admixed in the various experimental groups to minimize a systemic effect of gender on disease progression and treatment response. […]

SMILES: C=CC[C@@H]1/C=C(\C)C[C@H](C)C[C@H](OC)[C@H]2O[C@@](O)(C(=O)C(=O)N3CCCC[C@H]3C(=O)O[C@H](/C(C)=C/[C@@H]3CC[C@@H](O)[C@H](OC)C3)[C@H](C)[C@@H](O)CC1=O)[C@H](C)C[C@@H]2OC [FK506]
- average disease onset (SOD1-G93A mice): 13.2±1.8 weeks
- life span (SOD1-G93A mice): 17.6±2.0 weeks

SMILES: COc1c(C)c2c(c(O)c1C/C=C(\C)CCC(=O)OCCN1CCOCC1)C(=O)OC2 [MMF, mycophenolate mofetil]
- effect of adding MMF to FK506 plus rapamycin on graft survival and infiltration by CD4/CD8 (+) cells or microglia/macrophages [1]: no apparent effects
